Values after ≈ are worked out from the molar mass of the structure shown. Active and inactive are the calls of the source. No cut-off for these calls is given here.
How the values were obtained:
Lactuca sativa [1] = test: Phytotoxicity in naked Lactuca sativa (lettuce) assessed as change in visual quality after compound application through two-tier reduced pressure fumigation at 30 mmHg for 0.5 hr and then 760 mmHg for 1.5 hr at 23 +/- 1 degC after 2 hr; format: organism-based; settings: in vivo
Myzus persicae [2] = test: Insecticidal activity against Myzus persicae (green peach aphid) placed under third leaf of naked Iceburg lettuce heads and after compound application for 2 hr through two-tier reduced pressure fumigation at 30 mmHg for 0.5 hr and then 760 mmHg for 1.5 hr at 23 +/- 1 degC measured after 24 hr; format: functional; settings: for LC50: Myzus persicae, read-out: LD50 (the source's name)
Tetranychus urticae = test: Insecticidal activity against Tetranychus urticae (two-spotted spider mite); format: functional, organism-based
Brevicoryne brassicae = test: Insecticidal activity against Brevicoryne brassicae (cabbage aphids); format: functional, organism-based
[3] = system: Frankliniella occidentalis; test: Insecticidal activity against Frankliniella occidentalis (western flower thrips); format: functional, organism-based
Bemisia = test: Insecticidal activity against Bemisia sp.; format: functional, organism-based
Pseudococcus affinis = test: Insecticidal activity against Pseudococcus affinis; format: functional, organism-based
Pseudococcus viburni = test: Insecticidal activity against Pseudococcus viburni; format: functional, organism-based
Lactuca sativa [4] = test: Phytotoxicity in naked Lactuca sativa (lettuce) assessed as residual aldehyde odor after compound application through two-tier reduced pressure fumigation at 30 mmHg for 0.5 hr and then 760 mmHg for 1.5 hr at 23 +/- 1 degC after 2 hr; format: organism-based; settings: in vivo
Persea americana [5] = test: Phytotoxicity in Persea americana (avocado) assessed as induction of visual damage after compound application for 1 hr through two-tier reduced pressure fumigation at 30 mmHg for 0.5 hr and then 760 mmHg for 1.5 hr at 23 +/- 1 degC; format: organism-based; settings: in vivo
Citrus x paradisi [6] = test: Phytotoxicity in Citrus x paradisi (grape fruit) assessed as induction of visual damage after compound application for 1 hr through two-tier reduced pressure fumigation at 30 mmHg for 0.5 hr and then 760 mmHg for 1.5 hr at 23 +/- 1 degC; format: organism-based; settings: in vivo
Oryza sativa = test: Phytotoxicity in Oryza sativa (rice) assessed as induction of olfactory damage after compound application for 1 hr through two-tier reduced pressure fumigation at 30 mmHg for 0.5 hr and then 760 mmHg for 1.5 hr at 23 +/- 1 degC; format: organism-based; settings: in vivo
Vitis vinifera [7] = test: (§1) Phytotoxicity in Vitis vinifera assessed as induction of olfactory damage after compound application for 1 hr through two-tier reduced pressure fumigation at 30 mmHg for 0.5 hr and then 760 mmHg for 1.5 hr at 23 +/- 1 degC; format: organism-based; settings: in vivo
Vitis vinifera [8] = test: as §1; format: organism-based; settings: in vivo; remark: listed apart in the source
Malus domestica [9] = test: Phytotoxicity in Malus x domestica (apple) assessed as induction of olfactory damage after compound application for 1 hr through two-tier reduced pressure fumigation at 30 mmHg for 0.5 hr and then 760 mmHg for 1.5 hr at 23 +/- 1 degC; format: organism-based; settings: in vivo
Persea americana [10] = test: Phytotoxicity in Persea americana (avocado) assessed as induction of olfactory damage after compound application for 1 hr through two-tier reduced pressure fumigation at 30 mmHg for 0.5 hr and then 760 mmHg for 1.5 hr at 23 +/- 1 degC; format: organism-based; settings: in vivo
Lactuca sativa [11] = test: Phytotoxicity in naked Lactuca sativa (lettuce) assessed as induction of olfactory damage after compound application for 1 hr through two-tier reduced pressure fumigation at 30 mmHg for 0.5 hr and then 760 mmHg for 1.5 hr at 23 +/- 1 degC; format: organism-based; settings: in vivo
Vitis vinifera [12] = test: (§2) Phytotoxicity in Vitis vinifera assessed as induction of visual damage after compound application for 1 hr through two-tier reduced pressure fumigation at 30 mmHg for 0.5 hr and then 760 mmHg for 1.5 hr at 23 +/- 1 degC; format: organism-based; settings: in vivo
Vitis vinifera [13] = test: as §2; format: organism-based; settings: in vivo; remark: listed apart in the source
Malus domestica [14] = test: Phytotoxicity in Malus x domestica (apple) assessed as induction of visual damage after compound application for 1 hr through two-tier reduced pressure fumigation at 30 mmHg for 0.5 hr and then 760 mmHg for 1.5 hr at 23 +/- 1 degC; format: organism-based; settings: in vivo
Citrus x paradisi [15] = test: Phytotoxicity in Citrus x paradisi (grape fruit) assessed as induction of olfactory damage after compound application for 1 hr through two-tier reduced pressure fumigation at 30 mmHg for 0.5 hr and then 760 mmHg for 1.5 hr at 23 +/- 1 degC; format: organism-based; settings: in vivo
[16] = system: Brassica oleracea var. capitata; test: Phytotoxicity in Brassica oleracea var. capitata (cabbage) assessed as induction of olfactory damage after compound application for 1 hr through two-tier reduced pressure fumigation at 30 mmHg for 0.5 hr and then 760 mmHg for 1.5 hr at 23 +/- 1 degC; format: organism-based; settings: in vivo
[17] = system: Brassica oleracea var. italica; test: Phytotoxicity in Brassica oleracea var. italica assessed as induction of olfactory damage after compound application for 1 hr through two-tier reduced pressure fumigation at 30 mmHg for 0.5 hr and then 760 mmHg for 1.5 hr at 23 +/- 1 degC; format: organism-based; settings: in vivo
Lactuca sativa [18] = test: Phytotoxicity in wrapped Lactuca sativa (lettuce) assessed as induction of olfactory damage after compound application for 1 hr through two-tier reduced pressure fumigation at 30 mmHg for 0.5 hr and then 760 mmHg for 1.5 hr at 23 +/- 1 degC; format: organism-based; settings: in vivo
Lactuca sativa [19] = test: Phytotoxicity in naked Lactuca sativa (lettuce) assessed as change in visual quality after compound application for 1 hr through two-tier reduced pressure fumigation at 30 mmHg for 0.5 hr and then 760 mmHg for 1.5 hr at 23 +/- 1 degC; format: organism-based; settings: in vivo
[20] = system: Brassica oleracea var. capitata; test: Phytotoxicity in Brassica oleracea var. capitata (cabbage) after compound application for 1 hr through two-tier reduced pressure fumigation at 30 mmHg for 0.5 hr and then 760 mmHg for 1.5 hr at 23 +/- 1 degC; format: organism-based; settings: in vivo
[21] = system: Brassica oleracea var. italica; test: Phytotoxicity in Brassica oleracea var. italica after compound application for 1 hr through two-tier reduced pressure fumigation at 30 mmHg for 0.5 hr and then 760 mmHg for 1.5 hr at 23 +/- 1 degC; format: organism-based; settings: in vivo
Lactuca sativa [22] = test: Phytotoxicity in naked Lactuca sativa (lettuce) after compound application for 1 hr through two-tier reduced pressure fumigation at 30 mmHg for 0.5 hr and then 760 mmHg for 1.5 hr at 23 +/- 1 degC; format: organism-based; settings: in vivo
Myzus persicae [23] = test: Insecticidal activity against Myzus persicae (green peach aphid) infested wrapped lettuce applied for 1 hr through two-tier reduced pressure fumigation at 30 mmHg for 0.5 hr and then 760 mmHg for 1.5 hr at 23 +/- 1 degC measured 24 hr; format: functional, organism-based
Myzus persicae [24] = test: Insecticidal activity against Myzus persicae (green peach aphid) infested naked lettuce applied for 1 hr through two-tier reduced pressure fumigation at 30 mmHg for 0.5 hr and then 760 mmHg for 1.5 hr at 23 +/- 1 degC measured 24 hr; format: functional, organism-based
Acari = test: Insecticidal activity mites on flower bulbs; format: functional
[25] = system: Frankliniella occidentalis; test: Insecticidal activity against Frankliniella occidentalis (western flower thrips) larva and adults; format: functional
Myzus persicae [26] = test: Insecticidal activity Myzus persicae (green peach aphid) on flower bulbs; format: functional
Thysanoptera = test: Insecticidal activity Thysanoptera (thrips) on flower bulbs; format: functional

CC(C)=CC=O [3-METHYL-(E)-2-BUTENAL]
Activity (Lactuca sativa [1]): Toxic | LD90 (Myzus persicae [2]): 139.1 mg/L | LC50 (Myzus persicae [2]): 73.9 µg/mL (≈ 879 µM) | Activity (Tetranychus urticae): inactive | Activity (Brevicoryne brassicae): inactive | Activity [3]: Active | Activity (Bemisia): Active | Activity (Pseudococcus affinis): Active | Activity (Pseudococcus viburni): Active | Activity (Lactuca sativa [4]): Toxic

CCC(C)C=O (stereo unspecified) [2-METHYLBUTANAL]
Activity (Lactuca sativa [1]): Toxic | LD90 (Myzus persicae [2]): 184.4 mg/L | LC50 (Myzus persicae [2]): 138 µg/mL (≈ 1610 µM) | Activity (Tetranychus urticae): inactive | Activity (Brevicoryne brassicae): inactive | Activity [3]: Active | Activity (Bemisia): Active | Activity (Pseudococcus affinis): Active | Activity (Pseudococcus viburni): Active | Activity (Lactuca sativa [4]): Toxic

CCCCC=O [PENTANAL]
Activity (Lactuca sativa [1]): Toxic | LD90 (Myzus persicae [2]): 115.7 mg/L | LC50 (Myzus persicae [2]): 71.4 µg/mL (≈ 829 µM) | Activity (Tetranychus urticae): inactive | Activity (Brevicoryne brassicae): inactive | Activity [3]: Active | Activity (Bemisia): Active | Activity (Pseudococcus affinis): Active | Activity (Pseudococcus viburni): Active | Activity (Lactuca sativa [4]): Toxic

C/C=C(\C)C=O [2-methyl-(E)-2-butenal]
Activity (Lactuca sativa [1]): Toxic | CTP (Myzus persicae [2]): 310 mg/L.hr | LD90 (Myzus persicae [2]): 123.6 mg/L | LC50 (Myzus persicae [2]): 76.6 µg/mL (≈ 911 µM) | Activity (Persea americana [5]): Non-toxic | Activity (Citrus x paradisi [6]): Non-toxic | Activity (Oryza sativa): Toxic | Activity (Vitis vinifera [7]): Non-toxic | Activity (Vitis vinifera [8]): Non-toxic | Activity (Malus domestica [9]): Non-toxic | Activity (Persea americana [10]): Non-toxic | Activity (Tetranychus urticae): inactive | Activity (Brevicoryne brassicae): inactive | Activity [3]: Active | Activity (Bemisia): Active | Activity (Pseudococcus affinis): Active | Activity (Pseudococcus viburni): Active | Activity (Lactuca sativa [11]): Toxic | Activity (Vitis vinifera [12]): Non-toxic | Activity (Vitis vinifera [13]): Non-toxic | Activity (Lactuca sativa [4]): Toxic | Activity (Malus domestica [14]): Non-toxic | Activity (Citrus x paradisi [15]): Non-toxic | Activity [16]: Toxic | Activity [17]: Toxic | Activity (Lactuca sativa [18]): Toxic | Activity (Lactuca sativa [19]): Toxic | Activity [20]: Toxic | Activity [21]: Toxic | Activity (Lactuca sativa [22]): Toxic | Activity (Myzus persicae [23]): Active | Activity (Myzus persicae [24]): Active

CBr [BROMOMETHANE]
CTP (Acari): 100 mg/L.hr | CTP [25]: 25 mg/L.hr | CTP (Myzus persicae [26]): 100 mg/L.hr | CTP (Thysanoptera): 100 mg/L.hr

Reference: ChEMBL document CHEMBL3046689, “Volatile aldehydes are promising broad-spectrum postharvest insecticides” (J Agric Food Chem, 2000)
